# What was measured:
# [1] = tested on: autophagy proteins in U266 MM cells; assay: Immunoblot densitometry of autophagy proteins; assay type: cell-based, Human; settings: U266, 6h, MA9-060 1μM, JQ1 10μM, CQ 1μM; for LC3II densitometry: CTRL 0.34; for LC3I densitometry: CTRL 3.01; for ULK1 densitometry: CTRL 7.21; for ULK3 densitometry: CTRL 15.17
# Method: Figure 3. Anti-myeloma activity of the MA9–060 autophagy inhibitor. A. Chemical structure of the autophagy inhibitor MA9–060. […] Chloroquine (CQ) (1μM) served as a positive control for autophagy inhibition. C. […] Hoechst 33342 dye appears here as the nuclear blue staining (Multiple comparisons ANOVA, p <0.0001).
# 157 5872S). Protein concentration was quantified by Thermo Scientific™ Pierce™ BCA™ Protein
# 30 μg protein was loaded to 10%-15% gel and ran at
# 159 100V for 2 hours. Later protein was transferred to PVDF membrane and blocked with 5% skimmed
# 160 milk in TBST (10 mM Tris/HCl pH8.0, 0.12M NaCl, 0.1% Tween 20) containing 5% BSA [8] for
# 163 at 4°C overnight. Membranes were washed 3 times,10 minutes with TBS. Then incubated with
# 164 appropriate secondary antibodies at 1:1000 ratio in skimmed milk or 2% BSA. The membranes
# 165 were washed again 3 times for 10 minutes with TBST. ECL reagents were added to the membrane
# 166 and blot was developed by LICOR Imaging Studio.
# 167 All immunoblotting assays were performed at least in three replicates and representative
# 168 images are shown. Commercially available antibodies and their dilutions are listed in
# 169 Supplementary Table 5. Immunoblotting images were acquired and quantified using LICOR
# 170 Image Studio Quant software. […]
# U266 = assay: MTS cell viability assay; assay type: cell-based; settings: Homo sapiens, U-266; U266, 48h, Fig. 6E; read-out: IC50, Survival (%)
# Method: (§1) Myeloma cell lines were plated in 96-well plates (2 × 10^5 cells/ml) and treated with vehicle control (HPβCD) and test compounds. Cell viability was assessed at 48 hours using the MTS assay (CellTiter 96, CAT# G3582). Absorbance was measured at 490 nm after a 2-hour incubation at 37°C. IC50 values were calculated using Prism software (version 9.3.1), and synergy matrices were generated with Combenefit Software.
# U266-PSR = assay: MTS cell viability assay; assay type: cell-based; settings: 48h, Fig. 6E, read-out: IC50, Survival (%)
# Method: as §1
# U266-Luc MM cells = assay: U266-Luc in vivo model, tail vein injection; settings: 10 mg/kg/day, M-F, from day 20; days post-tumor inoculation
# Method: For the U266-Luc model, 1 × 10^6 cells (100 μl/PBS) were tail vein injected into 4- to 6-week-old female and male NSG mice. […] Endpoint was represented by hind limb paralysis or >20% weight loss. When sacrificed, tumors tibiae were harvested and fixed in 10% neutral buffered formalin for 24 hours. Bioluminescent signal is reported as the average of the sum of dorsal and ventral signal of the mice/group/timepoint. […]
# 28 Animal Experimentation: All animal experiments were performed with approval from the
# 29 Moffitt/University of South Florida Institutional Animal Care and Use Committee (Protocol
# 31 validation of MA9 efficacy (Figure 4), we initially included n = 10 mice per treatment group:
# Randomization based on sex, weight,
# 33 and initial tumor burden was conducted, followed by treatment with either vehicle control (n = 6),
# 35 Tumor progression was tracked via bioluminescence: endpoint was paralysis or >20% weight loss.
# 36 Experiments were blinded. […]
# 38 For MA9 therapy efficacy, mice were treated with vehicle (n=10) or MA9 (10 mg/kg/day,
# 39 subcutaneously, M-F from day 20; n=10) (Supplementary Fig. 7E, F). Survival and toxicity
# 40 (weight, clinical signs) was monitored.
# 43 Luciferase-labeled MM cells 5TGM1-Luc (RRID: CVCL_VI66) and U266-Luc (RRID: […]
# 51 cells (all from the ATCC, USA) were routinely cultured at 37 °C in Roswell Park Memorial
# 53 FBS1) and penicillin/streptomycin (hereafter, complete medium).
# 54 Cells were not used for five days following PI-treatment. All myeloma cell lines were […]
# [2] = tested on: autophagy in U266 MM cells; assay: CYTO-ID autophagy detection; assay type: cell-based, Human
# Method: Autophagic activity was monitored using the Cyto-ID Green Autophagy Detection Kit (Enzo Life Sciences, ENZ-51031-K200, USA) as per manufacturer’s instructions. Further details and protocols for quantitative analysis by Flow Cytometry and Confocal Microscopy are provided in Supplementary Materials.
# 248 80% confluence. Cells were pelleted again and re-suspended in Resuspension Buffer R (Neon 10
# 249 μl kit Invitrogen) to a final concentration of 1 × 10^7 cells/ml. 1 × 10^6 cells were then transferred to
# 250 a sterile 1.5 ml microcentrifuge tube (Sarstedt), brought to 10 μl final volume of cell suspension
# 251 with Buffer R, and mixed with Alt-R CRISPR-Cas9 crRNA: Hs.Cas9.ULK3.1.AA (position
# 253 […]), (Integrated DNA Technologies). Alt-R CRISPR-Cas9
# 254 Negative Control RNA #1 (CAT# 1079138) was used in NTC control. Cells were counted,
# 255 electroporated and seeded in a 24-well plate with 0.5 ml of pre-warmed supplemented RPMI
# 258 Measurement of autophagic activity - CytoID Assay
# 260 autophagic compartments. Cells were washed and treated with 1 μM tested compound or vehicle
# 261 control for 6h under standard tissue culture conditions. […]
# 270 later, cells were washed and assessed by flow cytometry. […]
# 272 compensation and fluorescence-minus-one (FMO) controls were generated in parallel. […]
# 273 fluorescence intensity (MFI) and percentage of Cyto-ID Green-expressing MM singlet live (DAPI […]
# [3] = tested on: MM cells (5TGM1, 8226, and U266); assay: MTS assay on MM cells; assay type: cell-based
# Method: as §1
Compound,LC3II densitometry [1],LC3I densitometry [1],ULK1 densitometry [1],ULK3 densitometry [1],IC50 (U266) [mM],IC50 (U266-PSR) [mM],median survival (U266-Luc MM cells) [days],effect on autophagy [2],effect on cell survival [3]
"CCN(CC)CCCC(C)Nc1ccnc2cc(Cl)ccc12 (centres unmarked) [CQ, Chloroquine]",0.14,1.69,0.78,11.1,0.055,8.7,81.5,,
Cc1sc2c(c1C)C(c1ccc(Cl)cc1)=N[C@@H](CC(=O)OC(C)(C)C)c1nnc(C)n1-2 [JQ1],0.40,3.36,6.20,16.81,,,90.5,no effect,
N#CC[C@H](C1CCCC1)n1cc(-c2ncnc3[nH]ccc23)cn1 [ruxolitinib],,,,,,,,,no effect

# Source: publication PMC12363935, “Unc-51 Like Kinase 3 (ULK3) is essential for autophagy and cell survival in multiple myeloma” (Research Square, 2025)
